PubChem BioAssay AID330 (DTP/NCI, 2004)
Toxic doses and inconclusive results are not listed. The calls were made as follows: active = survival T/C of 150% or more; inactive = T/C below 125% in these data.

System: P388 leukemia ip, CD2F1 mice, survival T/C
Assay: NCI In Vivo Anticancer Drug Screen. Data for tumor model P388 Leukemia (intraperitoneal) in CD2F1 (CDF1) mice
Conditions: endpoint: median survival time, higher = longer survival
In short: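 Mice carrying the transplanted tumor received test compound or vehicle. Survival was recorded in each group, and the value is the treated-group measurement divided by that of the vehicle-treated control group.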

[1] = dose: 50.0 mg/kg/injection, schedule: Q01DX005 (ip), vehicle: saline with Tween-80
[2] = dose: 100.0 mg/kg/injection, schedule: Q01DX005 (ip), vehicle: saline with Tween-80
[3] = dose: 200.0 mg/kg/injection, schedule: Q01DX005 (ip), vehicle: saline with Tween-80
[4] = dose: 50.0 mg/kg/injection, schedule: Q01DX005 (ip), vehicle: distilled water + alcohol
[5] = dose: 100.0 mg/kg/injection, schedule: Q01DX005 (ip), vehicle: distilled water + alcohol
[6] = dose: 200.0 mg/kg/injection, schedule: Q01DX005 (ip), vehicle: distilled water + alcohol
[7] = dose: 50.0 mg/kg/injection, schedule: Q01DX005 (ip), vehicle: Klucel (hydroxypropylcellulose) (HPC)
[8] = dose: 100.0 mg/kg/injection, schedule: Q01DX005 (ip), vehicle: Klucel (hydroxypropylcellulose) (HPC)
[9] = dose: 60.0 mg/kg/injection, schedule: Q01DX005 (ip), vehicle: saline
[10] = dose: 120.0 mg/kg/injection, schedule: Q01DX005 (ip), vehicle: saline
[11] = dose: 60.0 mg/kg/injection, schedule: Q01DX005 (ip), vehicle: Klucel (hydroxypropylcellulose) (HPC)
[12] = dose: 120.0 mg/kg/injection, schedule: Q01DX005 (ip), vehicle: Klucel (hydroxypropylcellulose) (HPC)
[13] = dose: 240.0 mg/kg/injection, schedule: Q01DX005 (ip), vehicle: Klucel (hydroxypropylcellulose) (HPC)
[14] = dose: 60.0 mg/kg/injection, schedule: Q01DX005 (ip), vehicle: saline with Tween-80
[15] = dose: 120.0 mg/kg/injection, schedule: Q01DX005 (ip), vehicle: saline with Tween-80
[16] = dose: 240.0 mg/kg/injection, schedule: Q01DX005 (ip), vehicle: saline with Tween-80
[17] = dose: 100.0 mg/kg/injection, schedule: Q01DX009 (ip), vehicle: saline with Tween-80
[18] = dose: 400.0 mg/kg/injection, schedule: Q01DX009 (ip), vehicle: saline with Tween-80
[19] = dose: 50.0 mg/kg/injection, schedule: Q01DX009 (ip), vehicle: saline
[20] = dose: 100.0 mg/kg/injection, schedule: Q01DX009 (ip), vehicle: saline
[21] = dose: 200.0 mg/kg/injection, schedule: Q01DX009 (ip), vehicle: saline

Measured: T/C

Oc1ccc(O)c2c1C1(Cl)C(Cl)=C(Cl)C2(Cl)C1(Cl)Cl
inactive: dose: 100.0 mg/kg/injection, schedule: Q04DX003 (ip), vehicle: other 100 % of control | dose: 200.0 mg/kg/injection, schedule: Q04DX003 (ip), vehicle: other 104 % of control | dose: 400.0 mg/kg/injection, schedule: Q04DX003 (ip), vehicle: other 113 % of control

COC(=O)C1=C(C)NC(C)=C(C(=O)OC)C1c1cc2ccccc2nc1Cl
inactive: [1] 92 % of control | [2] 88 % of control | [3] 92 % of control

COc1ccc(C=C2C=C(C(C)(C)C)C(=O)C(C(C)(C)C)=C2)cc1
inactive: [4] 108 % of control | [5] 96 % of control | [6] 108 % of control

Cn1c(=O)c2c(-c3ccc(Cl)cc3)onc2n(C)c1=O
inactive: dose: 50.0 mg/kg/injection, schedule: Q01DX009 (ip), vehicle: Klucel (hydroxypropylcellulose) (HPC) 96 % of control | dose: 100.0 mg/kg/injection, schedule: Q01DX009 (ip), vehicle: Klucel (hydroxypropylcellulose) (HPC) 100 % of control

CC(=O)Nc1c(Cl)cc(Cl)c2c1Cc1cc(Cl)ccc1-2
inactive: [7] 88 % of control | [8] 94 % of control | dose: 200.0 mg/kg/injection, schedule: Q01DX005 (ip), vehicle: Klucel (hydroxypropylcellulose) (HPC) 112 % of control

O=c1[nH]cc(N=Cc2cccc3c2OCO3)c(=O)[nH]1
inactive: dose: 100.0 mg/kg/injection, schedule: Q01DX001 (ip), vehicle: suspension in saline 99 % of control | dose: 200.0 mg/kg/injection, schedule: Q01DX001 (ip), vehicle: suspension in saline 86 % of control

NC(=O)C1CCCN1C(=O)C1CCCN(Cc2ccc(CN3CCCC(C(=O)N4CCCC4C(N)=O)C3)cc2)C1 (stereo not drawn)
inactive: [9] 106 % of control | [10] 97 % of control

Cc1nn(-c2ccccc2)c(=O)n2c1nc1ccccc12
inactive: [11] 99 % of control | [12] 97 % of control | [13] 91 % of control

O=C1C2CC(CN3CCCCC23)C2CCCCN12 (stereo not drawn)
inactive: dose: 6.2 mg/kg/injection, schedule: Q01DX007 (ip), vehicle: carboxymethylcellulose (CMC) 100 % of control | dose: 12.5 mg/kg/injection, schedule: Q01DX007 (ip), vehicle: carboxymethylcellulose (CMC) 91 % of control | dose: 25.0 mg/kg/injection, schedule: Q01DX007 (ip), vehicle: carboxymethylcellulose (CMC) 91 % of control | dose: 37.5 mg/kg/injection, schedule: Q01DX009 (ip), vehicle: saline 95 % of control | dose: 75.0 mg/kg/injection, schedule: Q01DX009 (ip), vehicle: saline 102 % of control | dose: 150.0 mg/kg/injection, schedule: Q01DX009 (ip), vehicle: saline 101 % of control

Cc1cccc(-c2nnc(N)o2)c1[N+](=O)[O-]
inactive: [14] 108 % of control | [15] 108 % of control | [16] 101 % of control

CCCCCCCCCCC(N)P(=O)(O)O (stereo not drawn)
inactive: dose: 12.5 mg/kg/injection, schedule: Q01DX009 (ip), vehicle: saline with Tween-80 104 % of control | dose: 25.0 mg/kg/injection, schedule: Q01DX009 (ip), vehicle: saline with Tween-80 100 % of control | dose: 50.0 mg/kg/injection, schedule: Q01DX009 (ip), vehicle: saline with Tween-80 100 % of control

Cc1cc(NC(=O)CSCC(=O)O)no1
inactive: [11] 98 % of control | [12] 101 % of control | [13] 94 % of control

CCOC(=O)C(=O)Nc1ccccc1
inactive: [17] 99 % of control | dose: 200.0 mg/kg/injection, schedule: Q01DX009 (ip), vehicle: saline with Tween-80 97 % of control | [18] 99 % of control

COc1ccc(C2=C(C#N)C(=C(C#N)C#N)NC(N)=C2C#N)cc1
inactive: [11] 105 % of control | [12] 91 % of control

COc1ccccc1-c1cn(O)c2nc(=N)nc(N)c-2n1
inactive: dose: 50.0 mg/kg/injection, schedule: Q04DX003 (ip), vehicle: saline with Tween-80 91 % of control | dose: 100.0 mg/kg/injection, schedule: Q04DX003 (ip), vehicle: saline with Tween-80 89 % of control | dose: 200.0 mg/kg/injection, schedule: Q04DX003 (ip), vehicle: saline with Tween-80 99 % of control | dose: 400.0 mg/kg/injection, schedule: Q04DX003 (ip), vehicle: saline with Tween-80 107 % of control

C/C=C(\C)C(N)=O
inactive: [19] 90 % of control | [20] 100 % of control | [21] 95 % of control

CC(C)=CCC/C(C)=C/COC(=O)C1C(C=C(C)C)C1(C)C (stereo not drawn)
inactive: [19] 100 % of control | [20] 100 % of control | [21] 116 % of control | dose: 400.0 mg/kg/injection, schedule: Q01DX009 (ip), vehicle: saline 101 % of control

CC1(C)CCCC(C)(C(=O)O)O1 (stereo not drawn)
inactive: [14] 104 % of control | [15] 101 % of control | [16] 104 % of control

O=C1CSC(c2ccc(O)c(O)c2)N1c1nncs1 (stereo not drawn)
inactive: dose: 25.0 mg/kg/injection, schedule: Q04DX002 (ip), vehicle: saline with Tween-80 96 % of control | dose: 50.0 mg/kg/injection, schedule: Q04DX002 (ip), vehicle: saline with Tween-80 100 % of control | dose: 100.0 mg/kg/injection, schedule: Q04DX002 (ip), vehicle: saline with Tween-80 98 % of control

COc1ccc(C2NCc3c(sc4c3CCCC4)-n3cccc32)cc1 (stereo not drawn)
inactive: [1] 87 % of control | [2] 87 % of control | [3] 87 % of control

CC1=NNC(=O)CC1C(O)c1ccccc1 (stereo not drawn)
inactive: [9] 114 % of control | [10] 101 % of control | dose: 240.0 mg/kg/injection, schedule: Q01DX005 (ip), vehicle: saline 107 % of control

CN(C)CCCSc1n[nH]c(=O)[nH]c1=O
inactive: dose: 25.0 mg/kg/injection, schedule: Q01DX005 (ip), vehicle: distilled water + alcohol 111 % of control | [4] 104 % of control | [5] 95 % of control | [6] 92 % of control

NC(C(=O)O)C(N)C(=O)O (stereo not drawn)
inactive: [17] 90 % of control | [18] 100 % of control

Cc1ccccc1C1OC2=C(Nc3ccc([N+](=O)[O-])cc3N2)C1=O (stereo not drawn)
inactive: [11] 88 % of control | [12] 90 % of control | [13] 101 % of control

CN1C(=O)CC(=O)N(c2ccccc2)c2cc(Cl)ccc21
inactive: [7] 103 % of control | [8] 97 % of control

OCCN(CCO)Cc1nc2ccccc2[nH]1
inactive: dose: 50.0 mg/kg/injection, schedule: Q01DX005 (ip), vehicle: saline 104 % of control | dose: 100.0 mg/kg/injection, schedule: Q01DX005 (ip), vehicle: saline 99 % of control | dose: 200.0 mg/kg/injection, schedule: Q01DX005 (ip), vehicle: saline 101 % of control
